Results on 9 molecules are retold here after publication PMC11001712, “Epiberberine: a potential rumen microbial urease inhibitor to reduce ammonia release screened by targeting UreG” (Applied Microbiology and Biotechnology, 2024).

The structures appear in SMILES notation. Where two headings read alike, the source gives them in different places.

Data set [1] has as its system UreG. As to the kind of experiment: UreG GTPase activity (Malachite Green Phosphate Assay). Format: biochemical, rumen microorganisms of dairy cows. Particulars: for IC50: alkaloid 0, 6.25, 12.5, 25, 50 and 100 μM, triplicate, read-out: IC50 against UreG GTPase activity.
The test system of data set [2] is urease of ruminal microbial crude protein. The experiment in a line: Urease activity of ruminal microbial crude protein (phenol/hypochlorite). Conditions: Fig. 5A. Format: biochemical, rumen microorganisms. The method, then: Ruminal microbial crude protein was collected by ultrasonication and centrifugation following a previously established method (Zhang et al. [2020b]). The urease activity of ruminal microbial crude protein was determined based on the amount of ammonia decomposed by urea through a modified phenol/hypochlorite reaction method (Krallmann-Wenzel [1985]), in which the urease activity without alkaloid and urea was set at 0, and the urease activity without alkaloid was set at 100%. The inhibition rate of alkaloid to inhibit urease activity was calculated by the following formula: Inhibitionrate%=1-A-B/C-D×100 where A represents the absorbance value of urease activity with alkaloid, B represents the absorbance value of urease activity with alkaloid but without urea, C represents the absorbance value of urease activity without alkaloid, and D represents the absorbance value of urease activity without alkaloid and urea. Each measurement was performed in triplicate.

The target of a further data set is (UniProt A0A6M3RDS9). The experiment in a line: UreG GTPase activity (Malachite Green Phosphate Assay). Conditions: alkaloid 0, 6.25, 12.5, 25, 50 and 100 μM; triplicate; read-out: IC50 against UreG GTPase activity. It is filed as biochemical, rumen microorganisms of dairy cows.
The target in data set [3] is UreG. The experiment in a line: Isothermal titration calorimetry of nickel binding to UreG in presence of alkaloid. On the set-up: species or system rumen microorganisms of dairy cows. Particulars: for Effect on KD value between nickel and UreG / Effect on N value (nickel: UreG): 27 μM UreG, 1500 μM NiSO4, 238 μM alkaloid. The method, then:
The inhibition mechanism of UreG by alkaloid was explored using ITC and CD spectroscopy, to reveal the effects of alkaloid on the combination of nickel towards UreG and the secondary structure of UreG. ITC measurements were carried out with an AutoITC200 microcalorimeter (GE, MA, USA) as described previously (Zhang et al. [2020a]). Briefly, 27 µM UreG was titrated with 1500 µM NiSO4 in the present of 238 µM alkaloid. The titration curve was fitted with the one-site binding model, and the final data was analyzed by ITC Analysis Module in the software of Origin 7.0 (OriginLab, MA, USA).

In data set [4] the test system is UreG. The experiment in a line: Circular dichroism spectroscopy of UreG secondary structure. The arrangement: species or system rumen microorganisms of dairy cows. Particulars: 233 μg/mL UreG, 88 μM alkaloid. On the procedure:
The CD spectra of UreG were recorded using Chirascan Plus spectrometer (Applied Photophysics Ltd., Surrey, UK) equipped with a 1-mm quartz cell, at measurement range between 190 and 260 nm, with 1 nm data pitch and bandwidth. To reduce interference from the background solution, 233 µg/mL UreG and 88 µM alkaloid were prepared using distilled water. The final CD spectrum of UreG was obtained by subtracting the background spectrum (distilled water or alkaloid) from the sample spectrum. The secondary structure proportions (α-helix, β-sheet, β-turn, and random coil) in UreG were calculated using CDNN (v.2.1) software (Applied Photophysics Ltd., Leatherhead, UK).

Data set [5] concerns UreG. Conditions: from trend of Km and Vmax with alkaloid concentration.
Description: The kinetics assay of UreG by alkaloid was carried out by Michaelis–Menten equation, and the values of Michaelis–Menten constants (Km and Vmax) were calculated from the Lineweaver–Burk plots through the software of GraphPad Prism. The inhibition with various concentrations of alkaloids (0, 15.6, 62.5, and 250 µM) was measured at different concentrations of GTP substrate (0, 12.5, 25, 50, 100, and 200 µM).
The subject of a further data set is urease. The arrangement: method as in Tan et al. [2017]. Conditions: ref Tan et al. [2017]; cited from earlier work.
Data set [6] relates to urease of Helicobacter pylori. On the set-up: method as in Li et al. [2016]. Particulars: ref Li et al. [2016]; cited from earlier work.
The conditions of data set [7]: cited from earlier work.
Another data set concerns Helicobacter pylori. The arrangement: method as in Li et al. [2018]. Conditions: antibacterial study and urease activity in vivo; ref Li et al. [2018]; cited from earlier work.
Data set [8] relates to rumen microbial urease (rumen fluid). The experiment in a line: Ruminal microbial fermentation in vitro (NH3 and urea). Particulars: 15 mM urea; for Decrease in NH3 concentration: 12 h of incubation. Format: cell-based, rumen microorganisms. The method, then: The study of ruminal microbial fermentation consisted of a control group and 3 epiberberine treatment groups, each containing 70 mL fresh rumen fluid and 140 mL anaerobic medium (Zhang et al. [2020c]). Epiberberine treatment groups with the final concentration of 2, 20, and 200 μM were pre-incubated in an anaerobic chamber at 39 °C for 15 min. Immediately after inoculation, 10 mL aliquots of mixed solution were transferred into Hungate tubes, urea with a final concentration of 15 mM was added into each tube. Three tubes were immediately collected from each group as 0 h samples; the others were sealed with rubber stoppers and cultured in an incubator. Samples were collected at 1, 2, 4, 8, and 12 h of incubation, with 3 tubes in each group. The collected tubes were immediately placed on ice to slow down fermentation; 400 μL of sample solution was mixed with 800 μL metaphosphoric acid solution (25% w/v) and centrifuged at 12,000 × g for 5 min. The supernatant was collected for the detection of NH3 and urea. NH3 content was measured by a modified phenol/hypochlorite reaction method. Urea concentration was determined using the diacetyl monoxime method kit following the manufacturer’s instructions (Jiancheng Bioengineering, Nanjing, China).

The conditions of data set [9]: acute toxicity; ref Yi et al. [2013]; cited from earlier work.
For data set [10] the following is noted: rat, in vivo, po; cited from earlier work.

Sequence of (UniProt A0A6M3RDS9) (A0A6M3RDS9 1-203): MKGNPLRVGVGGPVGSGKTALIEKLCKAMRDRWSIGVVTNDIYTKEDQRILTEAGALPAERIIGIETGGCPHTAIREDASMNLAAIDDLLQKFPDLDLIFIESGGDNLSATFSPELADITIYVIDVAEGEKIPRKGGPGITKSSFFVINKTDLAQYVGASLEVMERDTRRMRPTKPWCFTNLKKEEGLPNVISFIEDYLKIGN

On to `CC(=O)NO` [AHA, acetohydroxamic acid, reference compound], for which, in the data set on UreG [1] (Fig. 1A screening), the “Inhibition rate of UreG GTPase activity” value is reported as “little effect”. For the same molecule, in data set [2], the “Inhibition rate of urease activity against ruminal microbial crude protein” value amounted to 40%.

As to `c1c2c(cc3c1OCO3)-c1cc3ccc4c(c3c[n+]1CC2)OCO4` [Coptisine chloride], the IC50 at UreG [1] worked out at 86.6 µM. Further, the “Inhibition rate of UreG GTPase activity relative to coptisine” value with UreG [1] (ratio of inhibition rates) was determined as 2.5 times.

On to `COc1cc2c(cc1O)CC[n+]1cc3c(OC)c(OC)ccc3cc1-2` [Jatrorrizine chloride], for which the IC50 at UreG [1] is 60.1 µM.

Turning to `COc1cc2c(cc1OC)-c1cc3ccc(OC)c(OC)c3c[n+]1CC2` [Palmatine chloride], the IC50 at (UniProt A0A6M3RDS9) came out at 94.8 µM.

With `COc1ccc2cc3[n+](cc2c1OC)CCc1cc2c(cc1-3)OCO2` [berberine chloride], the IC50 on (UniProt A0A6M3RDS9) is 43.2 µM. Further, at UreG [3], the “Effect on KD value between nickel and UreG” value was “slightly altered”; the “Effect on N value (nickel: UreG)” value is on record as “slightly altered”. Besides, in the data set with UreG [4], the “Secondary structural content changes of UreG” value is listed as “slight changes”. Also, in the data set on UreG [5], the “Type of inhibition of UreG” value is reported as “mixed-type inhibitor”.

As to `COc1ccc2cc3[n+](cc2c1OC)CCc1cc2c(cc1-3)OCO2` [berberine], the “Inhibitory potential against urease based on IC50 (rank among 5 alkaloids)” value in the data set on urease is listed as “weakest one among the 5 alkaloids”. Besides, the “Inhibitory activity against urease of Helicobacter pylori” value in data set [6] is reported as “little inhibitory activity”. Also, the Oral bioavailability in data set [7] (rats, ref Chen et al. [2017]) is on record as under 1%.

For `c1c2c(cc3c1OCO3)-c1cc3ccc4c(c3c[n+]1CC2)OCO4` [coptisine], the “Inhibitory effect on Helicobacter pylori among the 5 major protoberberine alkaloids” value in the data set on Helicobacter pylori is given as “strongest inhibitory effect”.

As for `COc1cc2c(cc1OC)-c1cc3ccc4c(c3c[n+]1CC2)OCO4` [epiberberine], the IC50 on (UniProt A0A6M3RDS9) worked out at 56.9 µM. Besides, at UreG [3], the “Effect on KD value between nickel and UreG” value was “increased”; the “Effect on N value (nickel: UreG)” value is on record as “decreased”. The “Weaker binding of nickel and UreG compared to that of berberine chloride” value with UreG [3] (238 μM alkaloid) is 10.8 fold. In the data set with UreG [4], the “Decrease in the α-helix content of UreG” value is ~ 56% and the “Increasement in the β-sheet content of UreG” value is listed as ~ 105%. In addition, the “Inhibition rate of urease activity against ruminal microbial crude protein” value in data set [2] was “significantly higher than that of berberine chloride and AHA”. Moreover, the “Urea remaining during fermentation” value in data set [8] (2 μM, after 8 h of incubation) is “completely decomposed”. In addition, the “Decrease in NH3 concentration” value in data set [8] (20 μM) came out at 13.1%. In addition, the “Decrease in NH3 concentration” value in [8] (200 μM) was determined as 15.6%. In addition, the “Type of inhibition of UreG” value in the data set on UreG [5] is given as “uncompetitive inhibition type”. The “Inhibitory potential against urease based on IC50 (rank among 5 alkaloids)” value with urease is given as “lowest IC50 value”. For the same molecule, in [9], the Median lethal dose is listed as 1360.0 mg/kg. In addition, the Oral bioavailability in [7] (rat, in vivo, po) is 14.5%. Moreover, in [10], the “Detection in urine, feces and bile” value is given as “not detected”.

As for `COc1cc2c(cc1OC)-c1cc3ccc(OC)c(OC)c3c[n+]1CC2` [palmatine], the Median lethal dose in [9] is recorded as 1533.7 mg/kg.
